Laboratory results: paper PMC6390472, “‘Second-generation’ 1,2,3-triazole-based inhibitors of Porphyromonas gingivalis adherence to oral streptococci and biofilm formation” (MedChemComm, 2019)
Where two headings read alike, the source gives them in different places.

Assays:
P. gingivalis = assay: Planktonic growth of P. gingivalis (O.D.600nm); assay type: cell-based, P. gingivalis ATCC33277; conditions: Porphyromonas gingivalis, read-out: Percent inhibition of: P. gingivalis (planktonic growth)
Method: (§1) P. gingivalis ATCC33277 was grown in reduced trypticase soy broth (Difco) supplemented with 0.5 percent yeast extract, 1 μg mL^–1 menadione, and 5 μg mL^–1 hemin. Twenty five milliliters of medium were reduced for 24 h under anaerobic conditions by equilibrating in an atmosphere consisting of 10% CO2, 10% H2, and 80% N2. Following equilibration, P. gingivalis was inoculated in the medium and grown for 48 h at 37 °C under anaerobic conditions. S. gordonii DL-1 (1) was cultured aerobically without shaking in brain heart infusion (BHI) broth supplemented with 1 percent yeast extract for 16 hours at 37 °C. For some compounds that inhibited P. gingivalis adherence to S. gordonii, we determined their effect on planktonic growth of P. gingivalis and S. gordonii. The appropriate growth medium (10 ml) was supplemented with 10 μl of a 40 mM compound stock solution in DMSO. After inoculation, broth cultures were incubated as described above and compared to cultures grown in medium that was supplemented only with 0.1% DMSO. The cell density of each culture was determined by measuring the optical density at 600 nm (O.D.600nm) and the percent growth inhibition/stimulation was calculated using the following equation: [(O.D.600nm of the control/O.D.600nm of the culture grown in the presence of compound) – 1] × 100.

[1] = tested on: P. gingivalis adherence to S. gordonii; assay: Biofilm model of P. gingivalis adherence to S. gordonii (confocal, green/red fluorescence ratio); assay type: cell-based, P. gingivalis ATCC33277 / S. gordonii DL-1; conditions: inhibition of P. gingivalis adherence to S. gordonii; concentration that reduced ratio of green to red fluorescence by 50%; tested 0–60 μM
Method: as §1
Two species biofilms were formed essentially as previously described.[39] To prepare bacterial cells for biofilm culture, 10 ml of an overnight S. gordonii culture was centrifuged at 5600 rpm for 5 min and the cell pellet was suspended in 1 mL sterile PBS. Subsequently, 20 μL of 5 mg ml^–1 hexidium iodide (Molecular Probes) was added to the cell suspension and incubated for 15 min with gentle shaking at room temperature in the dark. The labeled cells were centrifuged as described above, washed with phosphate-buffered saline (10 mM Na2HPO4, […], […], and 2.7 mM KCl, pH 7.2; [PBS]) and the cell pellet was suspended in PBS at a final O.D.600nm of 0.8. Similarly, 10 mL of a 48 h culture of P. gingivalis was centrifuged at 5600 rpm for 15 min, the cell pellet was suspended in 1 mL PBS and 20 μL of 5(6)-carboxyfluorescein N-hydroxysuccinimide ester (4 mg ml^–1, Molecular Probes, Inc.) was added. After incubation for 30 min with gentle shaking at room temperature in the dark, the suspension was centrifuged and washed as described above and suspended in PBS at a final O.D.600nm of 0.4. For biofilm cultures, 1 mL of labeled S. gordonii cells was added to each well of a 12-well microtiter plate (Greiner Bio-one) containing a circular coverslip (Fisher brand) and incubated in an anaerobic chamber with rotary shaking for 24 h at 37 °C. Unbound cells were removed by aspiration and 1 ml of labeled P. gingivalis cells containing the desired concentration of test compound was added and incubated under anaerobic conditions for 22 h at 37 °C. Test compounds were dissolved in dimethyl sulfoxide (DMSO) to generate 1000× stock solutions and were routinely tested over a final concentration range of 0–60 μM. 1 μL of the appropriate stock solution was added to each 1 mL aliquot of labeled P. gingivalis cells and incubated for 30 min at room temperature prior to adding the suspension to the microtiter plate wells. For control biofilms, 1 μL of DMSO was added to 1 mL of labeled P. gingivalis and incubated as described above.
To visualize P. gingivalis/S. gordonii biofilms, unbound P. gingivalis cells were removed by aspiration and coverslips were washed once with PBS. Biofilms were fixed by incubating the coverslips with 1 mL of 4% paraformaldehyde for 5 min followed by two washes with PBS. The coverslips were then removed, placed face down on a glass microscope slide containing a drop of antifade reagent (Life Technology) and sealed with nail polish. […]

S. gordonii = assay: Planktonic growth of S. gordonii (O.D.600nm); assay type: cell-based, S. gordonii DL-1; conditions: Streptococcus gordonii, read-out: Percent inhibition of: S. gordonii (planktonic growth)
Method: as §1

TIGK cells = assay: Cellular ATP levels, CellTiterGlo; assay type: cell-based, Human; conditions: for ATP levels: 95 (5, 20, 40 μM), 111 (5, 20, 60 μM), 115 (5, 10, 20 μM), 122 (5, 20, 60 μM)
Method: Human telomerase immortalized gingival keratinocytes (TIGKs) were provided by Dr. Richard Lamont (University of Louisville) and were authenticated by comparison to primary gingival epithelial cells for cell morphology, growth, cytokeratin expression and the expression of toll-like receptors. TIGKs were cultured at 37 °C in an atmosphere of 5% CO2 in Basal Medium Dermalife K complete kit with Supplements (LifeLine, Frederick, MD). Cultures were incubated for 5 days and attained >95% confluence.
Cell metabolic activity was assessed by quantifying total ATP levels in cell culture samples using CellTiterGlo reagent (Promega). TIGK and J774A.1 cells were cultured and incubated with compounds as described above, washed three times with sterile PBS and incubated with 100 μl of CellTiterGlo substrate for 2 min with shaking and for an additional 10 min without shaking. Total light production was measured using a Victor 3 multi-label plate reader (PerkinElmer) in luminometer mode. All samples were assayed in triplicate.

[2] = 40 μM compound, cultures incubated overnight, vs 0.1% DMSO

Row | Structure (SMILES) | inhibition at 40 µM (P. gingivalis; [2]) [%] | IC50 [1] [µM] | inhibition at 40 µM (S. gordonii; [2]) [%] | further results
1 | COc1ccccc1-c1cn(-c2ccc(S(=O)(=O)Cc3nc(-c4ccc(F)cc4)c(-c4ccc(F)cc4)o3)cc2)nn1 [Compound 54] | -3.4 | 21.2 | -3.3 | 
2 | O=S(=O)(Cc1nc(-c2ccc(Cl)cc2)c(-c2ccc(Cl)cc2)o1)c1ccc(-n2cc(-c3ccc(F)cc3)nn2)cc1 [Compound 56] | -2.7 | 6.3 | 6.2 ± 8.8 | 
3 | COc1ccccc1-c1cn(-c2ccc(S(=O)(=O)Cc3nc(-c4ccc(Cl)cc4)c(-c4ccc(Cl)cc4)o3)cc2)nn1 [Compound 57] |  | 20 |  | melting point: 236 to 238 °C
4 | CCN(CC)c1nc(-c2cn(-c3ccc(-c4nc(-c5ccc(F)cc5)c(-c5ccc(F)cc5)o4)cc3)nn2)nc(N(CC)CC)n1 [Compound 93] | 2 ± 6.1 | 9.4 | -2 | 
5 | CCN(CC)c1nc(-c2cn(-c3ccc(-c4nc(-c5ccc(Cl)cc5)c(-c5ccc(Cl)cc5)o4)cc3)nn2)nc(N(CC)CC)n1 [Compound 95] | 0.4 ± 6.1 | 3.7 | -0.8 | ATP levels (TIGK cells; 18 h exposure): did not significantly reduce the levels of ATP
6 | Fc1ccc(-c2nc(-c3cccc(-n4cc(-c5nc(Nc6ccccc6F)nc(Nc6ccccc6F)n5)nn4)c3)oc2-c2ccc(F)cc2)cc1 [Compound 102] | -8.3 | 5 | -0.6 | 
7 | Fc1ccc(-c2nc(-c3ccc(-n4cc(-c5nc(Nc6ccccc6F)nc(Nc6ccccc6F)n5)nn4)cc3)oc2-c2ccc(F)cc2)cc1 [Compound 103] | -1.3 | 12.3 | -8.6 | 
8 | Fc1ccc(Nc2nc(Nc3ccc(F)cc3)nc(-c3cn(-c4cccc(-c5nc(-c6ccccc6)c(-c6ccccc6)o5)c4)nn3)n2)cc1 [Compound 111] |  | 4.3 |  | inhibition at 40 µM (P. gingivalis): 8.3 ± 3.6%; Concentration with cytotoxic activity relative to IC50 for inhibition of adherence (TIGK cells; 60 μM vs IC50): approximately 15 fold; Reduction of ATP levels (TIGK cells; 18 h exposure, 60 μM, p < 0.05 vs 0.1% DMSO): statistically significant; ATP levels (TIGK cells; 18 h exposure): dose-dependent reduction of ATP levels; inhibition at 40 µM (S. gordonii): 2.9 ± 3.9%
9 | Fc1ccc(Nc2nc(Nc3ccc(F)cc3)nc(-c3cn(-c4ccccc4-c4nc(-c5ccc(F)cc5)c(-c5ccc(F)cc5)o4)nn3)n2)cc1 [Compound 113] |  | 49.2 |  | 
10 | Fc1ccc(Nc2nc(Nc3ccc(F)cc3)nc(-c3cn(-c4cccc(-c5nc(-c6ccc(F)cc6)c(-c6ccc(F)cc6)o5)c4)nn3)n2)cc1 [Compound 114] |  | > 60 |  | 
11 | Fc1ccc(Nc2nc(Nc3ccc(F)cc3)nc(-c3cn(-c4ccc(-c5nc(-c6ccc(F)cc6)c(-c6ccc(F)cc6)o5)cc4)nn3)n2)cc1 [Compound 115] | -2.8 | 2.3 | -0.6 | ATP levels (TIGK cells; 18 h exposure): did not significantly reduce the levels of ATP
12 | Fc1ccc(Nc2nc(Nc3ccc(F)cc3)nc(-c3cn(-c4ccccc4-c4nc(-c5ccc(Cl)cc5)c(-c5ccc(Cl)cc5)o4)nn3)n2)cc1 [Compound 116] |  | > 40 |  | 
13 | Fc1ccc(Nc2nc(Nc3ccc(F)cc3)nc(-c3cn(-c4cccc(-c5nc(-c6ccc(Cl)cc6)c(-c6ccc(Cl)cc6)o5)c4)nn3)n2)cc1 [Compound 117] |  | 27.8 |  | 
14 | Fc1ccc(Nc2nc(Nc3ccc(F)cc3)nc(-c3cn(-c4ccc(-c5nc(-c6ccc(Cl)cc6)c(-c6ccc(Cl)cc6)o5)cc4)nn3)n2)cc1 [Compound 118] |  | 13.3 |  | 
15 | COc1ccc(-c2nc(-c3ccccc3-n3cc(-c4nc(Nc5ccc(F)cc5)nc(Nc5ccc(F)cc5)n4)nn3)oc2-c2ccc(OC)cc2)cc1 [Compound 119] |  | > 60 |  | 
16 | COc1ccc(-c2nc(-c3cccc(-n4cc(-c5nc(Nc6ccc(F)cc6)nc(Nc6ccc(F)cc6)n5)nn4)c3)oc2-c2ccc(OC)cc2)cc1 [Compound 120] |  | > 60 |  | 
17 | COc1ccc(-c2nc(-c3ccc(-n4cc(-c5nc(Nc6ccc(F)cc6)nc(Nc6ccc(F)cc6)n5)nn4)cc3)oc2-c2ccc(OC)cc2)cc1 [Compound 121] |  | > 60 |  | 
18 | Fc1ccc(Nc2nc(Nc3ccc(F)cc3)nc(-c3cn(-c4ccccc4-c4nc(-c5ccco5)c(-c5ccco5)o4)nn3)n2)cc1 [Compound 122] | 2.5 ± 5.4 | 2.4 | -0.6 | ATP levels (TIGK cells; 18 h exposure): did not significantly reduce the levels of ATP
19 | Fc1ccc(Nc2nc(Nc3ccc(F)cc3)nc(-c3cn(-c4cccc(-c5nc(-c6ccco6)c(-c6ccco6)o5)c4)nn3)n2)cc1 [Compound 123] |  | 8 |  | 
20 | Fc1ccc(Nc2nc(Nc3ccc(F)cc3)nc(-c3cn(-c4ccc(-c5nc(-c6ccco6)c(-c6ccco6)o5)cc4)nn3)n2)cc1 [Compound 124] |  | 7.8 |  | 
21 | CN(C)[C@@H]1C(O)=C(C(N)=O)C(=O)[C@@]2(O)C(O)=C3C(=O)c4c(O)cccc4[C@@](C)(O)[C@H]3C[C@@H]12 [Tet, tetracycline, reference compound] |  |  |  | inhibition at 10 µg/mL (P. gingivalis; 10 μg ml^–1 tetracycline): 95.7 ± 1.2%; inhibition at 10 µg/mL (S. gordonii; 10 μg ml^–1 tetracycline): 94.2 ± 1.7%
